The text below walks through data of patent US20070032502A1, “Quinazoline derivatives useful in cancer treatment” (Schering Corporation, priority 2005, published 2007).

Read-outs that look alike come from different tables or passages of the source. Where only a bound is given, the exact number is not on record here.

For one test, the system named is MB468. The test is described as follows: Proliferation assay (Calcein AM viability, 72 hours). In kind it is cell-based. The protocol:
This assay measures the growth suppression effects of small molecules in cells with mutant p53 vs. p53 null background. It uses Calcein AM to measure cellular viability. Cells (p53 null and mutant) are harvested and plated at 5000 cells per well in a 96-well tissue culture plate. The volume of cells in growth media is 100 µl. Serial dilutions (2× concentration) of compounds are then made and transferred to the plate of cells. The volume of compounds in the growth media is 100 μL. This dilution of compound with cells gives a 1× final dilution of compound (200 μL total volume). Plates are then incubated at 37° C. for 72 hours. Media is then poured off and Calcein AM is added at the appropriate concentration and the plates are incubated in the dark for 15 minutes and read for fluorescence. […] Compounds having EC50 values of 6 uM or higher have been assigned the letter “D”. These letter rating has been used throughout in the data tables above.

Test [1] deals with GST-p53 DNA binding domain (aa 92-aa 312) (Homo sapiens, UniProt P04637). Nature of the test: Scintillation Proximity Assay (SPA), displacement of 3H STANDARD COMPOUND
Sequence of GST-p53 DNA binding domain (aa 92-aa 312) (P04637 92-312): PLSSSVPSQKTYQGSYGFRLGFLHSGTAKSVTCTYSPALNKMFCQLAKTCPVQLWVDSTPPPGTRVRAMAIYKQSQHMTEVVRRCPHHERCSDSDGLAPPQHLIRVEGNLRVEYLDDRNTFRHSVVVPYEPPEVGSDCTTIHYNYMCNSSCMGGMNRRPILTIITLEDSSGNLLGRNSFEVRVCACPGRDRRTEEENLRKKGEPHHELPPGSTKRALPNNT
To be noted: for remaining activity at 2 µg/mL: 1 h. An excerpt:
Most of the oncogenic mutants of the tumor suppressor protein p53 lack sequence specific DNA binding activity at physiological temperature due to conformational changes in the DNA binding domain. Small molecules and peptide which bind to the p53 DNA binding domain stabilize the conformation and restore DNA binding activity to mutant p53 protein (Science 286, 2507-2510, 1999; PNAS, 99, 937-942, 2002). Using ^3H STANDARD COMPOUND (which is ^3H of the compound #1 of the present invention; the * Carbon atom is the one labeled; structure shown below), [drawing 2234] a radio labeled small molecule which binds to p53, and the GST-p53 DNA binding domain (aa 92-aa 312), we have developed a quantitative screening assay. The assay is based on Scintillation Proximity Assay (SPA) technology, developed by Amersham Biosciences to measure molecular interactions. Briefly, the complex of GST-p53, ^3H STANDARD and Glutathione-SPA beads (Amersham Biosciences) are incubated with mixing for 1 hr at room temperature in the presence of the novel compounds to be screened. The signal is read on Microbeta. The compounds which have the ability to displace ^3H STANDARD COMPOUND are selected. Such molecules will stabilize the conformation and restore DNA binding activity to mutant p53 protein.
The above assay was used to determine the ability of the compounds of this invention to restore DNA binding activity to mutant p53 and the results for selected compounds have been given above in various tables.
A letter rating corresponding to % Residual total binding (T) @ 2 ug/mL of drug (i.e., compound of the present invention) from this assay have been assigned as follows: Compounds having % Residual T values of from 0% to less than 20% have been assigned the letter “A”. Compounds having % Residual T values of from 20% to less than 40% have been assigned the letter “B”. Compounds having % Residual T values of from 40% to less than 80% have been assigned the letter “C”. Compounds having % Residual T values of 80% or higher have been assigned the letter “D”. The exact % Residual T values @ 2 ug/mL for some illustrative compounds are shown below: […]
(In general: Scintillation proximity formats need no separation of bound from free tracer.)

Another test concerns pancreatic cells. The test is described as follows: Potentiation of growth suppression with temozolomide (proliferation assay, temozolomide IC50). The class given is cell-based. The note with it: in combination with temozolomide, 72 hrs. The protocol: That the compounds of the present invention potentiate the growth suppression activity of temozolomide is illustrated by the fact that the compounds lower the temolozomide IC50 in various cell lines. The proliferation assay used is similar to that set forth above, and comprises the following general steps. • TMZ is diluted 2 fold in complete medium. • Cells are harvested and placed in each well with diluted TMZ. Cell conc. is 5000 cells per well in complete medium. • Appropriate concentration of compounds of present invention are then added to each well in combination with diluted TMZ. • Plates are incubated at 37° C. for 72 hrs. • Medium is poured off and 50 μL per well of Calcein AM (10 uM is added. Plate is then read in the fluorescent plate reader.
The extent of increase can be quantitated as is shown below in FIG. 5.

Where [2] appears, read: MB468 cells, read-out: PROFILE-RATION ASSAY EC50 MB468.
Setting [3] is: MB468, read-out: PROLIFERATION ASSAY EC50 MB468.
The mark [4] stands for this setting: read-out: SPA ASSAY (% residual T @ 2 ug/mL of drug).
Setting [5] is: 2 ug/mL of drug, lower is better, read-out: SPA ASSAY % Residual T @ 2 ug/mL of drug (Average of).
[6] abbreviates: MB168 [sic], read-out: PROFILERATION ASSAY EC50 MB168.
[7] abbreviates: 72 h, MB468 cells, 72 hours, read-out: PROLIFERATION ASSAY EC50 MB468.

Consider `CN(C)CCCOc1nc(CN2CCN(C(c3ccc(Cl)cc3)c3ccc(Cl)cc3)CC2)nc2ccccc12` [Example 16, [3-(2-{4-[BIS-(4-CHLOROPHENYL)METHYL]PIPERAZIN-1-YLMETHYL}QUINAZOLIN-4-YLOXY)PROPYL]DIMETHYLAMINE], for which the EC50 in the test on MB468 (72 h, read-out: EC50 rating according to the proliferation assay (MB468)) was above 6 µM. Further, in test [1] (read-out: % Residual T @ 2 ug/mL rating according to scintillation proximity assay (SPA)), the remaining activity at 2 µg/mL is above 80%.
In the case of `CCC(C)(C)C1CCC(N2CCN(Cc3nc(NCCCN(C)C)c4ccccc4n3)CC2)C1` (stereo not drawn) [Example 25-73], the EC50 with MB468 (setting [2]) is 4 to 6 µM. In test [1] (2 ug/mL of drug), the “SPA Assay (% residual T @ 2 ug/mL of drug)” value is “C (Compounds having % Residual T values of from 40% to less than 80% have been assigned the letter “C”)”.
Turning to `CN(C)CCCNc1nc(CN2CCN(C(c3ccccc3)c3ccc(OC(F)(F)F)cc3)CC2)nc2ccccc12` (single isomer, unassigned; (+)) [11 isomer 1, (+)-N,N-DIMETHYL-N′-[2-{4-[PHENYL-(4-TRIFLUOROMETHOXYPHENYL)METHYL]-PIPERAZIN-1-YLMETHYL}QUINAZOLIN-4-YL]PROPANE-1,3-DIAMINE], in the test on MB468 (72 h, MB468 cells, 72 hours, read-out: EC50 rating according to the proliferation assay (MB468)), the EC50 was below 2 µM. The remaining activity at 2 µg/mL in test [1] (2 ug/mL of drug, lower is better, read-out: % Residual T @ 2 ug/mL rating according to scintillation proximity assay (SPA)) was in the range of 20 to 40%.
With `COC(=O)C1CCN(c2nc(CN3CCN(C(c4ccc(Cl)cc4)c4ccc(Cl)cc4)CC3)nc3ccccc23)CC1` [Example 30-29], in the test with MB468 (setting [3]), the EC50 is 4 to 6 µM. Moreover, the remaining activity at 2 µg/mL in test [1] (setting [4]) is above 80%.
On to `O=C(C1CCCO1)N1CCN(c2nc(CN3CCN(C(c4ccc(Cl)cc4)c4ccc(Cl)cc4)CC3)nc3ccccc23)CC1` (stereo not drawn) [Example 30-22], for which the EC50 in the test with MB468 (setting [3]) is above 6 µM. Further, in test [1] (setting [4]), the remaining activity at 2 µg/mL was above 80%.
For the compound `CN(C)[C@@H]1CCN(c2nc(CN3CCN(C(c4ccc(Cl)cc4)c4ccc(Cl)cc4)CC3)nc3ccccc23)C1` [Example 30-26], in the test with MB468 (setting [3]), the EC50 is above 6 µM. Besides, in test [1] (setting [4]), the remaining activity at 2 µg/mL was in the range of 40 to 80%.
As to `OC1CCN(c2nc(CN3CCN(C(c4ccc(Cl)cc4)c4ccc(Cl)cc4)CC3)nc3ccccc23)C1` (stereo not drawn) [Example 30-4], in the test with MB468 (setting [3]), the EC50 was above 6 µM. The remaining activity at 2 µg/mL in test [1] (setting [4]) was above 80%.
For `CN(C)CCCNc1nc(CN2CCN(Cc3cccc4cc[nH]c34)CC2)nc2ccccc12` [Example 25-29], in the test on MB468 (setting [2]), the EC50 is 4 to 6 µM. In addition, the “SPA Assay (% residual T @ 2 ug/mL of drug)” value in test [1] (2 ug/mL of drug) is listed as “B (Compounds having % Residual T values of from 20% to less than 40% have been assigned the letter “B”)”. Also, the remaining activity at 2 µg/mL in test [1] (setting [5]) came to 37.9%.
For the compound `O=c1[nH]c2ccccc2n1C1CCN(c2nc(CN3CCN(C(c4ccc(Cl)cc4)c4ccc(Cl)cc4)CC3)nc3ccccc23)CC1` [Example 30-30], the EC50 in the test on MB468 (setting [3]) is 4 to 6 µM. In addition, in test [1] (setting [4]), the remaining activity at 2 µg/mL fell in the range of 40 to 80%.
Consider `CN(C)CCCNc1nc(CN2CCN(C(=O)Nc3ccc(C#N)cc3)CC2)nc2ccccc12` [Example 28-13], for which the EC50 in the test with MB468 (setting [6]) is above 6 µM. For the same compound, the “SPA ASSAY (% Residual T @ 2 ug/mL of drug (average of))” value in test [1] (2 ug/mL of drug) was “C (Compounds having % Residual T values of from 40% to less than 80% have been assigned the letter “C”)”.
`OC1CCN(c2nc(CN3CCN(C(c4ccc(Cl)cc4)c4ccc(Cl)cc4)CC3)nc3ccccc23)CC1` [Example 30-27]: in the test on MB468 (setting [3]), the EC50 was 4 to 6 µM. Further, the remaining activity at 2 µg/mL in test [1] (setting [4]) was above 80%.
`Clc1ccc(C(c2ccc(Cl)cc2)N2CCN(Cc3nc(N4CCOCC4)c4ccccc4n3)CC2)cc1` [Example 30-3]: the EC50 with MB468 (setting [3]) is above 6 µM. In test [1] (setting [4]), the remaining activity at 2 µg/mL was above 80%.
On to `CCC(C)(C)C1CCC(N2CCN(Cc3nc(NCCCN(C)C)c4ccccc4n3)CC2)CC1` (stereo not drawn) [Example 25-90], for which the EC50 in the test with MB468 (setting [7]) was 2 µM; with MB468 (setting [2]) it was 2 to 4 µM. Besides, the “SPA Assay (% residual T @ 2 ug/mL of drug)” value in test [1] (2 ug/mL of drug) is given as “B (Compounds having % Residual T values of from 20% to less than 40% have been assigned the letter “B”)”. Further, the remaining activity at 2 µg/mL in test [1] (setting [5]) came out at 38.1%.
For `COC(=O)[C@@H](Nc1nc(CN2CCN(C(=O)Nc3ccc(C(C)C)cc3)CC2)nc2ccccc12)C(C)C` [Example 20-29], in the test with MB468 (MB468 cells, read-out: PROLIFERATION ASSAY EC50 MB468), the EC50 was 4 to 6 µM. For the same compound, the “SPA Assay (% residual T @ 2 ug/mL of drug)” value in test [1] (2 ug/mL of drug) is “B (Compounds having % Residual T values of from 20% to less than 40% have been assigned the letter “B”)”. Further, in test [1] (setting [5]), the remaining activity at 2 µg/mL was 39.5%.
Take `Cc1cc(C)c(NC(=O)N2CCN(Cc3nc(NCCCN(C)C)c4ccccc4n3)CC2)c(C)c1` [Example 28-4]: the EC50 in the test on MB468 (setting [6]) was 4 to 6 µM. Also, the “SPA ASSAY (% Residual T @ 2 ug/mL of drug (average of))” value in test [1] (2 ug/mL of drug) is listed as “C (Compounds having % Residual T values of from 40% to less than 80% have been assigned the letter “C”)”.
Consider `CN(CCc1ccccn1)c1nc(CN2CCN(C(c3ccc(Cl)cc3)c3ccc(Cl)cc3)CC2)nc2ccccc12` [Example 30-14], for which the EC50 in the test with MB468 (setting [3]) is 4 to 6 µM. The remaining activity at 2 µg/mL in test [1] (setting [4]) was above 80%.
With `CN(C)CCCNc1nc(CN2CCN(Cc3cccc4ccccc34)CC2)nc2ccccc12` [Example 25-36], the EC50 with MB468 (setting [7]) is 2 µM; with MB468 (setting [2]), 4 to 6 µM. Moreover, the “SPA Assay (% residual T @ 2 ug/mL of drug)” value in test [1] (2 ug/mL of drug) was “B (Compounds having % Residual T values of from 20% to less than 40% have been assigned the letter “B”)”. The remaining activity at 2 µg/mL in test [1] (setting [5]) was 27.9%. Further, the “sensitivity of pancreatic cancer cells to temozolomide” value with pancreatic cells is reported as “increase in sensitivity”.
Turning to `COc1ccc(NC(=O)N2CCN(Cc3nc(NCCCN(C)C)c4ccccc4n3)CC2)cc1` [Example 28-20], the EC50 with MB468 (setting [6]) was above 6 µM. Further, in test [1] (2 ug/mL of drug), the “SPA ASSAY (% Residual T @ 2 ug/mL of drug (average of))” value was “B (Compounds having % Residual T values of from 20% to less than 40% have been assigned the letter “B”)”. Moreover, in test [1] (setting [5]), the remaining activity at 2 µg/mL was 38%.
In the case of `CN(C)CCCNc1nc(CN2CCN(C(c3ccccc3)c3ccc(OC(F)(F)F)cc3)CC2)nc2ccccc12` (stereo not drawn) [Example 11-1], the EC50 in the test on MB468 (MB468 cells, 72 hours, read-out: PROLIFERATION ASSAY EC50 MB468) was 1.4 µM. In addition, in test [1] (setting [5]), the remaining activity at 2 µg/mL was determined as 27.9%.
Regarding `CCN(CC)C(=O)C1CCCN(c2nc(CN3CCN(C(c4ccc(Cl)cc4)c4ccc(Cl)cc4)CC3)nc3ccccc23)C1` (stereo not drawn) [Example 30-25], the EC50 in the test on MB468 (setting [3]) is above 6 µM. Besides, the remaining activity at 2 µg/mL in test [1] (setting [4]) is above 80%.
As for `CN(C)CCCNc1nc(CN2CCN(C(=O)Nc3ccc(Cl)c(Cl)c3)CC2)nc2ccccc12` [Example 28-39], in the test with MB468 (setting [6]), the EC50 was 4 to 6 µM. In addition, the “SPA ASSAY (% Residual T @ 2 ug/mL of drug (average of))” value in test [1] (2 ug/mL of drug) was “B (Compounds having % Residual T values of from 20% to less than 40% have been assigned the letter “B”)”. For the same compound, the remaining activity at 2 µg/mL in test [1] (setting [5]) worked out at 29.9%.
